For 3 molecules, EC50 results are on record in article PMC11459959, “Discovery of new acetamide derivatives of 5-indole-1,3,4-oxadiazol-2-thiol as inhibitors of HIV-1 Tat-mediated viral transcription” (Antimicrobial Agents and Chemotherapy, 2024).

As usually defined, the EC50 is the concentration at which the effect is half-maximal. A low value points to an effect from little substance.

In assay [1] the test system is NNRTI-resistant HIV-1 strain 12241. Nature of the assay: microbe, parasite or virus in culture. It is filed as cell-based. Conditions: Human immunodeficiency virus 1, TZM-bl.
Assay [2] deals with NNRTI-resistant HIV-1 strain 12243. Put plainly: microbe, parasite or virus in culture. It is filed as cell-based. Conditions: Human immunodeficiency virus 1, TZM-bl.

With `O=C1Nc2ccc(Cl)cc2[C@@](C#CC2CC2)(C(F)(F)F)O1` [EFV, efavirenz, reference compound], the values for the EC50 in assay [1] and in assay [2] were 4360 ± 80 nM and 15500 ± 3390 nM, respectively.
Consider `Cc1[nH]c2ccc(-c3nnc(SCC(=O)N4CCCCC4)o3)cc2c1C` [Compound 9, 2-((5-(2,3-Dimethyl-1H-indol-5-yl)-1,3,4-oxadiazol-2-yl)thio)-1-(piperidin-1-yl)ethan-1-one], for which the EC50 in assay [1] was determined as 70 nM; in assay [2], 60 nM.
As for `Cc1[nH]c2ccc(-c3nnc(SCC(=O)N4CCCC4)o3)cc2c1C` [Compound 13, 2-((5-(2,3-Dimethyl-1H-indol-5-yl)-1,3,4-oxadiazol-2-yl)thio)-1-(pyrrolidin-1-yl)ethan-1-one], the EC50 came out at 200 nM in assay [1] and 180 ± 10 nM in assay [2].
